According to US20140186261A1, “ANTI-TUMOR AGENT AND ANTI-TUMOR KIT” (NIHON MEDI-PHYSICS CO., LTD., priority 2012, published 2014):
Read-outs that look alike come from different tables or passages of the source.

Columns and labels:
[1] = tested on: CD133+ cells in HT29 tumor; type: in vivo, BALB/c nude mice; conditions: tumor removed 2 days after 64Cu-ATSM administration; 5-FU 25 mg/kg x4 days, 64Cu-ATSM 37 or 74 MBq; anti-CD133 flow cytometry; 6 mice
Experimental: (§1) Human large bowel cancer-derived HT29 cells were purchased from ATCC and proliferated for use. […] At the final day of 5-FU administration, 37 MBq (1 mCi) of ^64Cu-ATSM was administered through the tail vein.
(§2) Cu-ATSM. The tumor size in mice was measured 2, 4, 8, 12, or 15 days after starting the administration of 5-FU. Cells obtained from the tumor removed at 2 days after the administration of ^64Cu-ATSM were subjected to the detection of apoptotic cells and CD133-positive (CD133+) cells using flow cytometry (Guava flow cytometry, from Millipore Corporation). The detection of apoptotic cells was performed using Annexin V (Mouse Anti-Human Annexin V FITC, AbD MCA2712F, from Serotec Co., Ltd.). The detection of CD133+cells was performed using an anti-CD133 antibody (CD133/1(A133)-PE, from Miltenyi Biotec K.K.).
In FIG. 3, the results of percentages of CD133+cells in the removed tumor are expressed in average and standard deviation for 6 mice.

[2] = tested on: Human large bowel cancer-derived HT29 cells; assay: Anti-tumor effect of 64Cu-ATSM and 5-FU in HT29 tumor-bearing mouse (tumor volume); type: in vivo, BALB/c nude mice; conditions: HT29 tumor-bearing mice; 5-FU 25 mg/kg i.p. once a day x4 days; 64Cu-ATSM 37 MBq (74 MBq in Comparative Example 3) via tail vein at final day; measured to day 15; 6 mice
Experimental: as §1, §2
The experiment was carried out in the same way as Example 2 except for administering saline in place of ^64Cu-ATSM.
The experiment was carried out in the same way as Example 2 except for administering saline in place of 5-FU.
Saline was administered in place of 5-FU. The dose of ^64Cu-ATSM was 74 MBq (2 mCi). The experiment was carried out in the otherwise same way as Example 2.
The volume of tumor was calculated from the size of tumor measured in Example 2 and Comparative Examples 1 to 3; the change thereof with time is shown in FIG. 1. […]

[3] = type: in vivo, BALB/c nude mice
Experimental: 5-FU was repeatedly intraperitoneally administered to BALB/c nude mice (male, 7-week old, about 25 g in body weight, obtained from Japan SLC, Inc.) at 25 mg/kg, 50 mg/kg, or 100 mg/kg once a day for 4 days. Body weight was measured at the 5th day from the first starting day of administration and later to determine the rate of body weight reduction. The rate of body weight reduction was calculated based on the following equation.
Body weight reduction rate(%)=[{(Body weight at day prior to the date of first 5-FU administration)−(Body weight measured after start of 5-FU administration)}/(Body weight at day prior to the date of first 5-FU administration)]×100
Saline was administered to a control group in place of 5-FU.

HT29 cells [4] = assay: Anti-tumor effect of repeated administration of 64Cu-ATSM and 5-FU in HT29 tumor-bearing mouse (tumor volume); type: in vivo, BALB/c nude mice; conditions: HT29 tumor-bearing mice; two cycles (start day 1 and 25th day) of 5-FU 25 mg/kg i.p. x4 days and 64Cu-ATSM 37 MBq at final day; to day 34; 6 mice
Experimental: The HT29 tumor-bearing model was prepared in the same way as Example 2; 1 week after the implantation of HT29 cells, 5-FU was repeatedly intraperitoneally administered at 25 mg/kg once a day for 4 days; and at the final day (4th day) of 5-FU administration, 37 MBq (1 mCi) of ^64Cu-ATSM was administered through the tail vein. The administration of 5-FU was again started at the 25th day from the start of 5-FU administration, with 25 mg/kg thereof repeatedly administered once a day for 4 days. At the final day of 5-FU administration, 37 MBq (1 mCi) of ^64Cu-ATSM was then administered through the tail vein. […] The tumor size in mice was measured 2, 4, 8, 12, 14, 16, 20, 24, 27, 31, or 34 days after starting the administration of 5-FU.
The experiment was carried out in the same way as Example 7 except for administering saline in place of ^64Cu-ATSM.
The experiment was carried out in the same way as Example 7 except for administering saline in place of 5-FU.
The volume of tumor was calculated from the size of tumor measured in Example 7 and Comparative Examples 6 and 7; the change thereof with time is shown in FIG. 5. In FIG. 5, the tumor volume at the day prior to the day of the first start of 5-FU administration was set to 100%, and the percentage based thereon was given. In FIG. 5, data are expressed in average and standard deviation for 6 mice.

[5] = tested on: Human large bowel cancer-derived HT29 cells; assay: Detection of apoptotic cells in removed HT29 tumor by flow cytometry (Annexin V); type: in vivo, BALB/c nude mice; conditions: tumor removed 2 days after 64Cu-ATSM administration, 5-FU 25 mg/kg x4 days, 64Cu-ATSM 37 or 74 MBq, 6 mice
Experimental: as §1, §2
In FIG. 2, the results of percentages of apoptotic cells in the removed tumor are expressed in average and standard deviation for 6 mice.

HT29 cells [6] = assay: Anti-tumor effect of 64Cu-ATSM and 6TG or PT in HT29 tumor-bearing mouse (tumor volume); type: in vivo, BALB/c nude mice; conditions: HT29 tumor-bearing mice; 6TG 12.5 mg/kg or PT 200 mg/kg i.p. once a day x4 days; 64Cu-ATSM 37 MBq via tail vein at final day (74 MBq alone in Comparative Example 3); to day 15; 6 mice
Experimental: (§3) The HT29 tumor-bearing model was prepared in the same way as Example 2, and 1 week after the implantation of HT29 cells, 6TG was repeatedly intraperitoneally administered at 12.5 mg/kg once a day for 4 days. At the final day of 6TG administration, 37 MBq (1 mCi) of ^64Cu-ATSM was administered through the tail vein. […] The tumor size in mice was measured 2, 4, 8, 12, or 15 days after starting the administration of 6TG.
The experiment was carried out in the same way as Example 5 except for administering saline in place of ^64Cu-ATSM.
as §3, with “PT” for “6TG”, “200” for “12.5”, “PT.” for “6TG.”
The experiment was carried out in the same way as Example 6 except for administering saline in place of ^64Cu-ATSM.
The volume of tumor was calculated from the size of tumor measured in Examples 5 and 6 and Comparative Examples 4 and 5; the change thereof with time is shown in FIG. 4. In FIG. 4, the tumor volume at the day prior to the day of the start of 6TG or PT administration was set to 100%, and the percentage based thereon was given. In FIG. 4, data are expressed in average and standard deviation for 6 mice. In addition, the results of Example 2 and Comparative Examples 1 to 3 were shown together in FIG. 4.

[7] = Study of dose of 6TG using nude mouse (rate of body weight reduction, death)
Experimental: 6TG was repeatedly intraperitoneally administered to BALB/c nude mice (male, 7-week old, about 25 g in body weight, obtained from Japan SLC, Inc.) at 12.5 mg/kg, 25 mg/kg, or 50 mg/kg once a day for 4 days. Body weight was measured at the 5th day from the first starting day of administration and later to determine the rate of body weight reduction. The rate of body weight reduction was calculated based on the following equation.
Body weight reduction rate(%)=[{(Body weight at day prior to the date of first 6TG administration)−(Body weight measured after start of 6TG administration)}/(Body weight at day prior to the date of first 6TG administration)]×100
Saline was administered to a control group in place of 6TG. In Table 2, they were expressed in average and standard deviation for 4 mice.

[8] = Study of dose of PT using nude mouse (rate of body weight reduction); type: in vivo, BALB/c nude mice; conditions: for Rate of Body Weight Reduction (%): average ± SD, 4 mice
Experimental: PT was repeatedly intraperitoneally administered to BALE/c nude mice (male, 7-week old, about 25 g in body weight, obtained from Japan SLC, Inc.) at 25, 50, 100, or 200 mg/kg once a day for 4 days. Body weight was measured at the 5th day from the first starting day of administration and later to determine the rate of body weight reduction. The rate of body weight reduction was calculated based on the following equation.
Body weight reduction rate(%)=[{(Body weight at day prior to the date of first PT administration)−(Body weight measured after start of PT administration)}/(Body weight at day prior to the date of first PT administration)]×100
Saline was administered to a control group in place of PT. In Table 3, they were expressed in average and standard deviation for 4 mice.

tumor = conditions: compared with 18FDG; Japanese Patent Laid-Open No. 2010-13380; cited from earlier work
[9] = tested on: CD133-positive cells in tumor; conditions: Yoshii et al. (2011), Nucl. Med. Biol. 38, 151-157; cited from earlier work
CD133-positive cells = conditions: Yoshii et al. (2010), Nucl. Med. Biol. 37, 395-404; cited from earlier work

Q: Which “percentage of CD133+ cells in tumor (FIG. 3)” value [1] does the source give for `O=c1[nH]cc(F)c(=O)[nH]1` [5-FU, 5-Fluorouracil] here?
A: can kill CD133+cells

Q: And the “tumor volume, change with time (FIG. 1; % of volume at day prior to start of 5-FU administration)” value [2]?
A: did not suppress the proliferation of tumor

Q: What about the death of mice ([3]; 5-FU 50 mg/kg i.p. once a day for 4 days) of the same compound?
A: died at the 10th or 11th day from administration

Q: And the death of mice ([3]; 5-FU 100 mg/kg i.p. once a day for 4 days)?
A: died at the 7th or 8th day from administration

Q: What about the “tumor volume, change with time (FIG. 5; % of volume at day prior to first start of 5-FU administration)” value (HT29 cells [4]) of the same compound?
A: could hardly suppress the proliferation of tumor

Q: What about the “percentage of apoptotic cells in tumor (FIG. 2)” value [5] of the same compound?
A: apoptosis of tumor cells was confirmed

Q: With `Nc1nc2nc[nH]c2c(=S)[nH]1` [6TG, 6-Thioguanine] as the compound, how does the “tumor volume, change with time (FIG. 4; % of volume at day prior to start of 6TG or PT administration)” value (HT29 cells [6]) read?
A: could not suppress the proliferation of tumor

Q: What about the death of mice ([7]; 6TG 25 mg/kg i.p. once a day for 4 days) of the same compound?
A: died at the 13th to 15th day from administration

Q: And the death of mice ([7]; 6TG 50 mg/kg i.p. once a day for 4 days)?
A: died at the 6th to 8th day from administration

Q: With `Nc1nc2[nH]cc(CCc3ccc(C(=O)N[C@@H](CCC(=O)O)C(=O)O)cc3)c2c(=O)[nH]1` [PT, Pemetrexed] as the compound, how does the “Rate of Body Weight Reduction (%)” value ([8]; PT 25 mg/kg/day i.p. once a day for 4 days, 5th Day) read?
A: −8.42 ± 12.36%

Q: What about the “Rate of Body Weight Reduction (%)” value ([8]; PT 25 mg/kg/day i.p. x4 days, 9th Day) of the same compound?
A: −12.11 ± 13.3%

Q: And the “Rate of Body Weight Reduction (%)” value ([8]; PT 25 mg/kg/day i.p. x4 days, 12th Day)?
A: −10.94 ± 12.04%

Q: What about the “Rate of Body Weight Reduction (%)” value ([8]; PT 25 mg/kg/day i.p. x4 days, 16th Day) of the same compound?
A: −14.11 ± 11.25%

Q: What about the “Rate of Body Weight Reduction (%)” value ([8]; PT 25 mg/kg/day i.p. x4 days, 18th Day) of the same compound?
A: −15.38 ± 9.65%

Q: What about the “Rate of Body Weight Reduction (%)” value ([8]; PT 50 mg/kg/day i.p. x4 days, 5th Day) of the same compound?
A: −3.94 ± 7.7%

Q: And the “Rate of Body Weight Reduction (%)” value ([8]; PT 50 mg/kg/day i.p. x4 days, 9th Day)?
A: −12.12 ± 5.33%

Q: And the “Rate of Body Weight Reduction (%)” value ([8]; PT 50 mg/kg/day i.p. x4 days, 12th Day)?
A: −12.91 ± 7.21%

Q: And the “Rate of Body Weight Reduction (%)” value ([8]; PT 50 mg/kg/day i.p. x4 days, 16th Day)?
A: −16.03 ± 8.57%

Q: What about the “Rate of Body Weight Reduction (%)” value ([8]; PT 50 mg/kg/day i.p. x4 days, 18th Day) of the same compound?
A: −15.41 ± 11.86%

Q: And the “Rate of Body Weight Reduction (%)” value ([8]; PT 100 mg/kg/day i.p. x4 days, 5th Day)?
A: −5.03 ± 8.95%

Q: And the “Rate of Body Weight Reduction (%)” value ([8]; PT 100 mg/kg/day i.p. x4 days, 9th Day)?
A: −12.82 ± 9.29%

Q: What about the “Rate of Body Weight Reduction (%)” value ([8]; PT 100 mg/kg/day i.p. x4 days, 12th Day) of the same compound?
A: −16.86 ± 8.46%

Q: What about the “Rate of Body Weight Reduction (%)” value ([8]; PT 100 mg/kg/day i.p. x4 days, 16th Day) of the same compound?
A: −20.08 ± 9.11%

Q: And the “Rate of Body Weight Reduction (%)” value ([8]; PT 100 mg/kg/day i.p. x4 days, 18th Day)?
A: −21.05 ± 6.18%

Q: And the “Rate of Body Weight Reduction (%)” value ([8]; PT 200 mg/kg/day i.p. x4 days, 5th Day)?
A: −5.75 ± 9.93%

Q: What about the “Rate of Body Weight Reduction (%)” value ([8]; PT 200 mg/kg/day i.p. x4 days, 9th Day) of the same compound?
A: −15.25 ± 10.49%

Q: And the “Rate of Body Weight Reduction (%)” value ([8]; PT 200 mg/kg/day i.p. x4 days, 12th Day)?
A: −18.1 ± 9.64%

Q: And the “Rate of Body Weight Reduction (%)” value ([8]; PT 200 mg/kg/day i.p. x4 days, 16th Day)?
A: −18.1 ± 9.64%

Q: And the “Rate of Body Weight Reduction (%)” value ([8]; PT 200 mg/kg/day i.p. x4 days, 18th Day)?
A: −17.19 ± 9.86%

Q: What about the “rate of body weight reduction” value ([8]; PT, all groups (25, 50, 100, 200 mg/kg once a day for 4 days), even at the 18th day) of the same compound?
A: ≤ 10%

Q: And the “tumor volume, change with time (FIG. 4; % of volume at day prior to start of 6TG or PT administration)” value (HT29 cells [6])?
A: could not suppress the proliferation of tumor

Q: For “diacetyl-bis(N4-methylthiosemicarbazone) copper complex [^64Cu-ATSM]”, which “sites of accumulation in tumor” value (tumor) is on record?
A: accumulate in sites different from those for ^18FDG in tumor

Q: And the “percentage of CD133+ cells in tumor (FIG. 3)” value [1]?
A: can kill CD133+cells

Q: What about the “tumor volume, change with time (FIG. 1; % of volume at day prior to start of 5-FU administration)” value [2] of the same compound?
A: suppressed the proliferation of tumor depending on the dose thereof

Q: What about the “tumor volume, change with time (FIG. 4; % of volume at day prior to start of 6TG or PT administration)” value (HT29 cells [6]) of the same compound?
A: could suppress the proliferation of tumor depending on the dose thereof

Q: And the “amount of CD133-positive cells in tumor and tumor size” value [9]?
A: decreased the amount of CD133-positive cells in tumor to shrink the tumor

Q: What about the “accumulation in CD133-positive cells” value (CD133-positive cells) of the same compound?
A: accumulates in CD133-positive cells

Q: What about the “tumor volume, change with time (FIG. 5; % of volume at day prior to first start of 5-FU administration)” value (HT29 cells [4]) of the same compound?
A: suppressed the proliferation of tumor depending on the dose thereof

Q: And the “percentage of apoptotic cells in tumor (FIG. 2)” value [5]?
A: apoptosis of tumor cells was confirmed
